Measurements published in US8552063B2, “Composition for accelerated production of collagen” (E.S.L.I. Limited, priority 2008, dated 2013).

System: human dermal fibroblasts
Assay: Collagen I secretion, CODTA combined with SDA (Example 3)
Format: cell-based
Conditions: in combination with Stearidonic Acid base; relative to diluent (vehicle) alone
Description: This example provides outline results of the effect of two test active ingredient mixes on collagen I secretion by human dermal fibroblasts. Human dermal fibroblasts (originally derived from explant cultures of normal human breast dermis) were cultured under standard conditions. Two test combinations of actives (CODTA's when combined with SDA) were initially screened for cytotoxicity before testing.
Collagen I levels were determined and are expressed as a percentage of the levels observed in samples from cultures treated with diluent (vehicle) alone.
Pepsin digests of both cell culture medium, and the cell culture surface (plate) from each treated culture well were analysed.

| Structure (SMILES) | Percentage increase in collagen I secretion |
| --- | --- |
| CCCCC\C=C/C=C/C=C/CCCCCCC(=O)O [Calendic Acid, Calendic acid] | 187% |
| CCCCC\C=C/C=C/C=C\CCCCCCC(=O)O [Jacaric Acid, Jacaric acid] | 278% |
